From patent US7919077B2, “Pharmaceutical compositions comprising CCL2 and use of same for the treatment of inflammation” (Yeda Research and Development Co. Ltd., priority 2006, dated 2011) come the findings set out here.

Test [1] can be described thus: OVA sensitization and challenge mouse asthma model. The class given is in vivo, BALB/c mice. The settings on record: OVA-challenged mice. As for the experimental part: Ovalbumin (OVA) sensitization, challenge and treatment with CCL2—OVA sensitization and challenge were effected following a previously described protocol [Flaishon, L., et al., J. Immunol: Cutting edge 168: 3707 (2002)], BALB/c mice (average: 9 mice/group) were sensitized for OVA by intraperitoneal injections with 100 μg of chicken egg ovalbumin (OVA; Sigma-Aldrich, St. Louis, Mo.) mixed with 2 mg of aluminum hydroxide (Pierce, Rockford, Ill.) in 300 μl PBS (control group mice were injected with PSB alone). Injections were given on day 0, 7, and 14. 15 days after initial sensitization, and following, animals were challenged daily for 5 days (days 15-19) by inhaling 4% OVA in PBS, administered by an ultrasonic nebulizer (DeVilbiss, Somersel, Pa.) for 20 minutes, while the control group was challenged with PBS alone.
One of the groups injected and challenged by OVA was additionally injected i.p. with 300 μl PBS from the first day of OVA inhalation (day 15), for 5 days 20 minutes before each inhalation, and another group was additionally injected with murine CCL2 (60 ng CCL2 per animal per day). PBS-treated control group was PBS challenged and PBS injected. On day 18, 2 hours following inhalation, mice were anesthetized by an i.p. injection of 0.2 ml Ketamine/xylazine, and airway hyper-responsiveness (AHR) was determined by calculating the enhanced respiratory pause (Penh), a function of the ratio of peak expiratory flow to peak inspiratory flow and a function of the timing of expiration, measured in a plethysmographic box during expiration. Delta Penh was calculated by subtracting control Penh measurements, before antigen challenge, from the Penh measurements after antigen challenge. […] On day 19 the mice were sacrificed 2 hours after the last inhalation.
Lung histology—Lungs from mice participating in the OVA sensitization and challenge assay were inflated with 1 ml of 10% formalin until distended. Samples for paraffin sectioning were immersed in 10% formalin and fixed for 48 hours. The tissues were then embedded in paraffin and 2-3 micrometer sections were prepared. […]

A further test has as its system effector T cells. Kind of test: Transwell migration of effector T cells (data not shown). The class given is cell-based, mice. Particulars: low dose CCL2.
In test [2] the test system is human T cells interacting with VCAM-1 (VLA-4). Kind of test: Laminar flow adhesion assay on VCAM-1 with co-immobilized CCL21. The class given is cell-based. The settings on record: low dose chemokine pretreatment. Here is the method:
Laminar flow adhesion assays—Purified VCAM-1 or ICAM-1-Fc (both from R&D Systems, Minneapolis, Minn.) were coated with or without CCL21 (R&D Systems) on polystyrene plates as previously described [Grabovsky et al., J Exp Med. (2000) 192:495-506; Sigal et al., J Immunol. (2000) 165:442-452]. The polystyrene plates were each assembled on the lower wall of the flow chamber as previously described [Feigelson et al., J Biol Chem. (2001) 276:13891-13901]. All flow experiments were conducted at 37° C. Cells were washed with cation-free H/H medium, resuspended in binding medium (H/H medium supplemented with 1 mM CaCl2 and 1 mM MgCl2) and perfused through the flow chamber at low shear stress (0.5-0.75 dyn/cm^2) for 2 minutes. Tethers were defined as transient or rolling if cells attached briefly (<2 seconds) to the substrate and as arrests if immediately arrested and remaining stationary for at least 5 seconds of continuous flow. Frequencies of adhesive categories within differently pretreated cells were determined as a percentage of cells flowing immediately over the substrates, as previously described [Grabovsky et al., supra]. To assess resistance to detachment over time, accumulated cells were subjected to a shear stress of 5 dyn/cm^2 for 5 minutes. At the indicated time points, the number of cells that remained bound was expressed relative to T cell population originally accumulated in the first 2 minute period of the assay. Over 90% of cellular tethers to VCAM-1 or ICAM-1 were blocked by pretreating cells with VLA-4 or LFA-1 blockers respectively.

The subject of the next test is naïve T cells. Kind of test: Transwell migration assay, naïve T cells. The class given is cell-based, mice. Particulars: cells pre-treated 30 min with CCL2 0.1 ng/ml, 3 hours migration. As for the experimental part:
Stimulation of T cells—Cell stimulation was performed as previously described [Flaishon et al., J Biol Chem. (2001) 276:46701-46706]. Briefly, 1×10^7 T cells were suspended in 1 ml DMEM cell medium containing 10% (v/v) Fetal Calf Serum (FCS). Next, 0.1 ng/ml CCL2 (CytoLab) was added to each tube and the tubes were immediately placed in 37° C. for 30 minutes. Immediately after stimulation, cells were washed and handled as described hereinbelow.
Transwell migration assay—Chemotaxis was assayed using Transwell chambers as was previously described [Flaishon, L. F., et al., J. Biol. Chem. 276:46701 (2001)]. Naive T cells were suspended for 30 minutes with RPMI medium with or without CCL2 (0.1 ng/ml, Peprotech Inc., Rocky Hill, N.J.), and thereafter placed in the upper chamber of a 24 well Transwell plate, and allowed to migrate towards CXCL12 (SDF-1, 0.1 mg/ml PeproTech, Inc., Rocky Hill, N.J.) or to the secondary lymphoid tissue chemokine (SLC, CCL21, 0.4 mg/ml; PeproTech, Inc., Rocky Hill, N.J.), placed in the lower chamber. Following 3 hours, the number of the migrating cells found in the lower chamber was evaluated by FACS (FACS calibur, BD bioscience). Assay was repeated 3 times and results were analyzed as percent migration, being the number of migrating cells in the lower chamber as a fraction of the input cells in the upper chamber.

In the case of “CCL2: mammalian (e.g., human) CCL2 protein, GenBank NM_002982 / NP_002973; murine CCL2 used in the asthma model”, in test [1] (CCL2 60 ng per day i.p., FIG. 8e), the “peribronchial and perivascular inflammatory infiltrate (inflammatory score 1-4)” value is reported as “significantly reduced”. Moreover, in test [1] (CCL2 60 ng per day i.p., FIG. 8d), the “histological changes in the lungs” value is recorded as “barely detectable”. The “airway responsiveness (delta Penh) to antigen challenge” value in test [1] (murine CCL2 60 ng per animal per day i.p. for 5 days, FIG. 8a) is listed as “no airway hyperactivity was observed”. Also, in the test with effector T cells, the “CCL21 induced transwell migration of effector cells” value was “down-regulated” and the “CXCL12 induced transwell migration of effector cells” value is recorded as “down-regulated”. The “post arrest adhesion strengthening on VCAM-1 (resistance to detachment)” value in test [2] (high shear stress 5 dyn/cm^2, FIG. 6d) was “failed to develop adhesion strengthening”. Moreover, the “VLA-4 activation by surface bound CCL21 (arrest on VCAM-1)” value in test [2] (shear stress 0.75 dyn/cm^2, FIG. 6c) is reported as “did not interfere”. Also, the “inhibition of migration of naïve T cells towards CXCL12” value in the test on naïve T cells (FIG. 2a) is reported as 40-50%. In the test on naïve T cells (FIG. 2b), the “inhibition of migration of naïve T cells towards CCL21” value is 40-50%.
